Laboratory results taken from ChEMBL document CHEMBL1129925, “Synthesis and antiviral evaluation of 4-hydroxymethyl-2, 3-dideoxy-3-thianucleosides and their cyclic monophosphates” (Bioorg Med Chem Lett, 1997).
The source made the active and inactive calls. No cut-off for these calls is given here.

Experiments:
[1] = Antiviral activity in PBM cells expressed as IC50; type: functional, cell-based, Homo sapiens
[2] = Antiviral activity in PBM cells expressed as CC50; type: functional; settings: Homo sapiens, PBMC
CEM-SS = assay: Tested for anti-HIV activity in CEM-SS cell line; Inactive; type: functional, cell-based; settings: Homo sapiens
MT4 [3] = assay: Antiviral activity in MT-4 cells expressed as IC50; type: functional, cell-based, Homo sapiens
MT4 [4] = assay: Antiviral activity in MT-4 cells expressed as CC50; type: functional; settings: Homo sapiens
H9 = assay: Antiviral activity in H9 cells expressed as IC50; type: functional, cell-based; settings: Homo sapiens
CD-4+ (A 3.01) [5] = assay: Antiviral activity in CD-4+ (A 3.01) cell line expressed as CC50; type: functional
CD-4+ (A 3.01) [6] = assay: Antiviral activity in CD-4+ (A 3.01) cell line expressed as IC50; type: functional, cell-based
CCRF-CEM [7] = assay: Cytotoxicity against CEM cells; type: functional; settings: Homo sapiens
MT4 [8] = assay: Cytotoxicity against MT-4 cells; type: functional; settings: Homo sapiens
[9] = Antiviral activity in PBM cells; type: functional, cell-based; settings: Homo sapiens, PBMC
[10] = Cytotoxicity against PBM cells; type: functional; settings: Homo sapiens, PBMC
MT4 [11] = assay: Antiviral activity in MT-4 cells; type: functional, cell-based; settings: Homo sapiens
CCRF-CEM [12] = assay: Antiviral activity in CEM cells expressed as CC50; type: functional; settings: Homo sapiens

Nc1ccn([C@@H]2CS[C@H](CO)O2)c(=O)n1 (stereo in doubt; (+)) [LAMIVUDINE]
IC50 [1]: 210 nM
CC50 [2]: > 100000 nM

Nc1ccn(C2CSC(CO)(CO)O2)c(=O)n1 (centres undefined)
Anti-HIV activity (CEM-SS): inactive

Nc1ccn([C@@H]2CS[C@H](CO)O2)c(=O)n1 (racemic) [LAMIVUDINE]
IC50 (MT4 [3]; Homo sapiens, MT4): 370 nM
CC50 (MT4 [4]): 405000 nM

Cc1cn(C2CSC(CO)(CO)O2)c(=O)[nH]c1=O (centres undefined)
Anti-HIV activity (CEM-SS): inactive

Cc1cn(C2CSC3(COP(=O)(O)OC3)O2)c(=O)[nH]c1=O (centres undefined)
Anti-HIV activity (CEM-SS): inactive

Nc1ccn(C2CC(CO)C(CO)O2)c(=O)n1 (centres undefined)
IC50 (H9): 10 nM

Nc1ccn(C2CSC3(COP(=O)(O)OC3)O2)c(=O)n1 (centres undefined)
Anti-HIV activity (CEM-SS): inactive

Cc1cn([C@H]2C[C@H](O)[C@](CO)(N=[N+]=[N-])O2)c(=O)[nH]c1=O
CC50 (CD-4+ (A 3.01) [5]): 8000 nM
IC50 (CD-4+ (A 3.01) [6]): 10 nM

Nc1ccn([C@@H]2CS[C@H](CO)O2)c(=O)n1 (single isomer, unassigned) [LAMIVUDINE]
CC50 (CCRF-CEM [7]): 363000 nM
CC50 (MT4 [8]): 407000 nM
IC50 [9]: 210 nM
CC50 [10]: > 100000 nM
IC50 (MT4 [11]): 370 nM

Nc1ccn([C@@H]2CS[C@H](CO)O2)c(=O)n1 (stereo in doubt; (-)) [LAMIVUDINE]
CC50 (CCRF-CEM [12]): 363000 nM
IC50 (MT4 [3]; mt4): 610 nM
IC50 [1]: 2 nM
